# Assay: Solubility of N-fluorocinchonidinium tetrafluoroborate in solvents
# Assay type: physicochemical
# Conditions: acetonitrile
# Experimental: ^19F NMR (282 MHz, CD3CN/CCl3F): 37.71 (s, 1F); −154.52 (s, 1F); −154.60 (s, 3F). (CD3CN/TFA): 118.35 (s, 1F); −74.12 (s, 1F); −74.17 (s, 3F). FTIR: (ν N—F) 927 cm^−1 Melting point: 189+/−2° C. […] MS (FAB^+, glycerol) 313 (cation^+, 18%) 295 (cation-H2O, 100) . TLC: acetone/heptane: 9/1; Rf=0.3.
smiles,measurement,value
C=CC1C[N+]2(F)CCC1CC2C(O)c1ccnc2ccccc12.F[B-](F)(F)F (stereo not shown) [N-fluorocinchonidinium Tetrafluoroborate],Solubility,ca. 200 mg/ml
